Patent US20230147196A1, “MITOCHONDRIAL DYSFUNCTION IMPROVING AGENT” (priority 2020, published 2023)

How the values were obtained:
[1] = system: neural cells; experiment: Mitochondrial dysfunction caused by Complex I inhibitor rotenone in neural cells; type: cell-based; conditions: summary statement on the respiratory chain inhibitor tests in neural cells
Procedure: Effects of an MKH derivative and a PKH derivative to mitochondrial dysfunctions caused by Complex I inhibitor rotenone ([…] Complex II inhibitor (3-nitro propionic acid (3-NP)), Complex III inhibitor (antimycin A), and a depolarizing agent (carbonylcyanide-m-chlorophenylhydrazone, CCCP) in neural cells were evaluated. The effects were evaluated with cell death (viability measurement with cell titer blue), inhibition of ATP production (ATP measurement with cell titer glo), and membrane potential reduction (JC-1 staining: depolarization (green), hyperpolarization (red)).

[2] = system: hippocampus-derived neurons; experiment: Neuronopathy model: single neuron-astrocyte coculture treated with Aβ peptide (Aβ25-35), Sholl analysis of dendrites and axons; type: cell-based, ICR mouse; conditions: for neuropathy of nerve axons (branches and elongation, Tau antibody staining, Sholl analysis) / neuropathy of nerve dendrites (branches and elongation, MAP2 antibody staining, Sholl analysis): Aβ25-35 1 μM, test compound 0.3 μM, exposed for three days, FIGS. 2 and 3; for neurotoxicity caused by Aβ: primary neurons, low concentration of 0.3 μM, summary statement
Procedure: In a neuronopathy model due to Aβ peptide of which a single neuron-astrocyte coculture sample is treated with Aβ peptide, an improvement effect in neurodegeneration of a MKH derivative was evaluated. Since mitochondrial affinity of the derivative and reconvertibility to MKH are expected affect the MKH delivery by an MKH derivative, a cationic derivative (MKH-DMG) presumed to have a high affinity, an anionic derivative (MKH-SUC) having a high intracellular reconversionability, and an oxidant of MKH (MK-4) used in clinical study were evaluated (Chem. 7).
After culturing (2 weeks) astrocytes isolated from the cerebral cortex of 0- to 1-day-old ICR mouse, regions were divided in dots on a slide glass and cultured. After culturing for one more week, hippocampus-derived neurons of 0- to 1-day-old ICR mouse were seeded and cocultured. From day 1 of seeding neuron, Aβ25-35 (1 μM) and a test compound (0.3 μM) were exposed for three days, and morphological change of neurons was observed. Dendrites (MAP2 antibody) and axons (Tau antibody) of nerves were stained by immunostaining and analyzed. Dendrites and axons were evaluated for changes in branches and elongation of dendrites and axons by Sholl analysis method.

CC(C)=CCC/C(C)=C/CC/C(C)=C/CC/C(C)=C/Cc1c(C)c(OC(=O)CN(C)C)c2ccccc2c1OC(=O)CN(C)C [MKH-DMG]
mitochondrial function (respiratory chain) damage / mitochondrial dysfunction (membrane potential reduced mitochondria) [1]: can improve
neuropathy of nerve axons (branches and elongation, Tau antibody staining, Sholl analysis) [2]: significantly improved
neuropathy of nerve dendrites (branches and elongation, MAP2 antibody staining, Sholl analysis) [2]: significantly improved
neurotoxicity caused by Aβ [2]: can improve

CC(C)=CCC/C(C)=C/CC/C(C)=C/CC/C(C)=C/Cc1c(C)c(OC(=O)CCC(=O)O)c2ccccc2c1OC(=O)CCC(=O)O [MKH-SUC]
mitochondrial function (respiratory chain) damage / mitochondrial dysfunction (membrane potential reduced mitochondria) [1]: can improve
neuropathy of nerve axons (branches and elongation, Tau antibody staining, Sholl analysis) [2]: significantly improved
neuropathy of nerve dendrites (branches and elongation, MAP2 antibody staining, Sholl analysis) [2]: significantly improved
neurotoxicity caused by Aβ [2]: can improve

Menaquinone-4 [MK-4, reference compound]
neuropathy of nerve axons (branches and elongation, Tau antibody staining, Sholl analysis) [2]: No improvement effect
neuropathy of nerve dendrites (branches and elongation, MAP2 antibody staining, Sholl analysis) [2]: No improvement effect
